Broadly, the remaining activity is the activity still measured, relative to the control.

Common to all, as to format: biochemical
The target of one assay is IRAK1 (Homo sapiens, UniProt P51617). Kind of assay: Dundee protein kinase screen. The note with it: IRAK1, 1µM; read-out: %Remaining activity at 1µM NU6300. The method, then: (§1) Prior to determining its cellular activity, we carried out a screen to assess its selectivity against a panel of 131 protein kinases under conditions that would not distinguish between a reversible or irreversible mode of action. […] These 13 kinases and 29 additional kinases, selected for their known sensitivity to other inhibitors within the purine series, were then tested in a modified screening format in which the assay was repeated following a 4-hr pre-incubation (Table S3B). […] However, conformational flexibility around the active site may promote such an interaction with a residue from another part of the structure ([Martin et al., 2012]).
(§2) Table S3, Related to Figure 4. NCL-0006300 protein kinase selectivity. (A) NU6300 was tested at a single concentration of 1µM against 131 protein kinases present in a Dundee protein kinase screen (Bain et al., 2007). Values given are % activity remaining and are the average of duplicate measurements: 0-25% (red), 26-50% (yellow), 51-80% (black) and above 81% (green). The kinase domain sequences (as defined by UniProt) of […]
(§3) have a lysine residue at a position close to CDK2 Lys88 or Lys89. However, in the structure of tyrosine-protein kinase BTK (PDB ID: 3GEN) the residue equivalent to CDK2 Asp86 is Cys481 and therefore there is the potential for a covalent adduct to be formed through this side chain. Ephrin type-B receptor 3 (UniProt entry P54753) also encodes a cysteine residue (Cys717) that by sequence alignment would be predicted to be close to the CDK2 lysine pair. (B) Selected kinases were re-tested in the Dundee kinase screen against NU6300 at a single concentration of 0.5 µM both in the standard assay format and following a 4 hour pre-incubation in the presence of NU6300. Kinases which have very low activity after the 4 hour incubation so that results might not be wholly reliable are boxed in salmon. Kinases where the activity after a 4 hour pre-incubation is < 50% that in the standard assay format are highlighted in red.

Another assay has as its target MKK2 (Homo sapiens, UniProt P36507). The experiment in a line: Dundee protein kinase screen. The conditions noted are these: MKK2, 1µM; read-out: %Remaining activity at 1µM NU6300. Here is the method:
as §1, §2, §3

Another assay concerns the target p38δ MAPK (Homo sapiens, UniProt O15264). The experiment in a line: Dundee protein kinase screen. The note with it: read-out: %Remaining activity at 1µM NU6300. Here is the method: as §1, §2, §3
The target of the next assay is BTK (Homo sapiens, UniProt Q06187). The experiment in a line: Dundee kinase screen re-test (standard format and 4 hour pre-incubation). In a few lines:
(§4)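 Selectivity panel of 131 protein kinases, inhibitor tested at a single concentration of 1 µM; values are % kinase activity remaining, mean of duplicates. Re-test of selected kinases used 0.5 µM in the standard format and again after a 4 hour pre-incubation with the inhibitor.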

For the next assay, the target named is CDK2-Cyclin A (Homo sapiens, UniProt P24941). The description is as above. The conditions noted are these: for remaining activity at 0.5 µM: CDK2/cyclin A. Summed up:
as §4

In the next assay the target is T1, TAO1 (Homo sapiens, UniProt Q7L7X3).
T1 sequence (Q7L7X3 1-1001): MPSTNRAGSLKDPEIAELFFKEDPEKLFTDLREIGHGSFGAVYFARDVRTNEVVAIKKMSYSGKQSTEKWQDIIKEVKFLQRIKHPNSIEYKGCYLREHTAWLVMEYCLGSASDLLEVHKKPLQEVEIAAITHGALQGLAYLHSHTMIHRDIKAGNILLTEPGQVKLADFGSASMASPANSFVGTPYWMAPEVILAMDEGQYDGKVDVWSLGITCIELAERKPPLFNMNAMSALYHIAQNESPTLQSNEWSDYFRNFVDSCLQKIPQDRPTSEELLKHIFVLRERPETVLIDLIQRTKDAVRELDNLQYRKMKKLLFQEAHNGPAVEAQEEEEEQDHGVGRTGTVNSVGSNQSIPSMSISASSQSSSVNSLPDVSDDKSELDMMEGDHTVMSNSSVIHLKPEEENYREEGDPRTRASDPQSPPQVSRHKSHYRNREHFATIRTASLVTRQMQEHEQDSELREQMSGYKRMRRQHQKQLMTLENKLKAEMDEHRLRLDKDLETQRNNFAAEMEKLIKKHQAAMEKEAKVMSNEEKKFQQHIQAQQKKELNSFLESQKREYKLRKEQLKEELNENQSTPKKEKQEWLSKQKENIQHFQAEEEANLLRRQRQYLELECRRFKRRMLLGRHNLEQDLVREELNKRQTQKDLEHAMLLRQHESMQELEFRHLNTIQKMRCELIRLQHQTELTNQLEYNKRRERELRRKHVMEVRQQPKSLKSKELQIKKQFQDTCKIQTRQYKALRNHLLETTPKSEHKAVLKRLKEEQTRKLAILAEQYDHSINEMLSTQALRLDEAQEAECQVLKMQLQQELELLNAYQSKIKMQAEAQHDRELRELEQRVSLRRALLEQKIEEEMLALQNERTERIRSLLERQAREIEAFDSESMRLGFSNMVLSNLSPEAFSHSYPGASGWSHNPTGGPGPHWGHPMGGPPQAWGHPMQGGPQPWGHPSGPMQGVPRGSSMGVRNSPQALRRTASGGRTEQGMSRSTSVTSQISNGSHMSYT
Described as above. The conditions noted are these: TAO1, 0.5µM. In a few lines: as §4

Setting [1] is: 4hr RT preincubation, read-out: %Remaining activity at 0.5µM NU6300 - 4hr RT preincubation.
Setting [2] is: usual format, read-out: %Remaining activity at 0.5µM NU6300 - Usual assay format.

Like-named read-outs stand apart in the source and are kept apart here. A value given as a limit tells only on which side of the number the result lay.

BTK, sequence (Q06187 whole entry): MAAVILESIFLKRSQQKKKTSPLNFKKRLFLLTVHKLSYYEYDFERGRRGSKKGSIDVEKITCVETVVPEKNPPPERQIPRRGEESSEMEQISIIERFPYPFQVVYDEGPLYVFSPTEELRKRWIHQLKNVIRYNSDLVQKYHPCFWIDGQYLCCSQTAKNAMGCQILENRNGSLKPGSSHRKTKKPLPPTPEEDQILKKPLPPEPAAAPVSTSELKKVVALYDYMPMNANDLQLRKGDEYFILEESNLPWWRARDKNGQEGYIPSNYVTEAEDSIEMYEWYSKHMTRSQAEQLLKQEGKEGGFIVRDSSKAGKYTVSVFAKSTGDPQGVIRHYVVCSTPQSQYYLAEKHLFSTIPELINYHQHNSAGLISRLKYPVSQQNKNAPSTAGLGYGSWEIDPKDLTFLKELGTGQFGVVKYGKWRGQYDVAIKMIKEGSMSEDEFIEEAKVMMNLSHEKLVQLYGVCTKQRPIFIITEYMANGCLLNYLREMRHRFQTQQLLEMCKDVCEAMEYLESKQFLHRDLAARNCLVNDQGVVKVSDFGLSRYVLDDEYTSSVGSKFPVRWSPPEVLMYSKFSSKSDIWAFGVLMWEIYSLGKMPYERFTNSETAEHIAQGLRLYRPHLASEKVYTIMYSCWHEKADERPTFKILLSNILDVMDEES
p38δ MAPK, sequence (O15264 whole entry): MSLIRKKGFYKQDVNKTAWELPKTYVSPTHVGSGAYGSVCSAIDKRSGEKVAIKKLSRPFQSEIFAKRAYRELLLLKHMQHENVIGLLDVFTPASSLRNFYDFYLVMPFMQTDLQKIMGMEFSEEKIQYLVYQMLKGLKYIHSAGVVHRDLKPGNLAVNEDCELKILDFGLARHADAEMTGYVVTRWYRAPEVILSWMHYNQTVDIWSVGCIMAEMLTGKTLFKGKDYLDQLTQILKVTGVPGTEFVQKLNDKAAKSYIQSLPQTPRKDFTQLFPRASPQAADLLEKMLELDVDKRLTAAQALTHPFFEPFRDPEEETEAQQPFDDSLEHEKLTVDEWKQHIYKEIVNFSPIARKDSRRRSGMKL
MKK2, sequence (P36507 whole entry): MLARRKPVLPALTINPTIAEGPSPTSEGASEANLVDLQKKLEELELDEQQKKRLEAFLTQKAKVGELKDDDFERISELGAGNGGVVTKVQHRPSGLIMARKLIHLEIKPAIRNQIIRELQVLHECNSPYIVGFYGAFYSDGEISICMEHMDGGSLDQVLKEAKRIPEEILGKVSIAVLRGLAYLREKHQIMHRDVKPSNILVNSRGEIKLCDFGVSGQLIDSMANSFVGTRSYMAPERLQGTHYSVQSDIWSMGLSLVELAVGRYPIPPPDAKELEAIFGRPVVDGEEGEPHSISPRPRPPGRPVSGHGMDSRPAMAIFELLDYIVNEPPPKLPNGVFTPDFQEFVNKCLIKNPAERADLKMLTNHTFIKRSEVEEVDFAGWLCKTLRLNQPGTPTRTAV
IRAK1, sequence (P51617 whole entry): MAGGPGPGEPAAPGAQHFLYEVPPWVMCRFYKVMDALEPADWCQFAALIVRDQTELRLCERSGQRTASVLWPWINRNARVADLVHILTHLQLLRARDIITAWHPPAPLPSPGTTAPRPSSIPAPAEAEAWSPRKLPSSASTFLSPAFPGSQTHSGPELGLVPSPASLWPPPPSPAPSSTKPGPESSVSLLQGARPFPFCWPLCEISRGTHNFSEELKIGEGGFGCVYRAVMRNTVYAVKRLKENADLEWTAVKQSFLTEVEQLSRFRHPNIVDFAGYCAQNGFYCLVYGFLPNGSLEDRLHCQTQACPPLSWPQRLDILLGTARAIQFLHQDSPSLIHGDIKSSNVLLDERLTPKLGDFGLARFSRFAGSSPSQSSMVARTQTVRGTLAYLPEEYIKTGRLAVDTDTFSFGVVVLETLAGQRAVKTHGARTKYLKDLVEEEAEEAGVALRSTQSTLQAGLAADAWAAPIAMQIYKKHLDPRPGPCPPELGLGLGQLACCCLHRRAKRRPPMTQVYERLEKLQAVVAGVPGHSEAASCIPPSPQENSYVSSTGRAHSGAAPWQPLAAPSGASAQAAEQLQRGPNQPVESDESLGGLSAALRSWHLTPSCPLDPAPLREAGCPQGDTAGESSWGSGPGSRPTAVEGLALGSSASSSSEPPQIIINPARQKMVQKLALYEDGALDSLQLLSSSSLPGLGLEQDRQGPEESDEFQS

Turning to `C=CS(=O)(=O)c1ccc(Nc2nc(OCC3CCCCC3)c3nc[nH]c3n2)cc1` [NU6300, 6-(cyclohexylmethoxy)-N-(4-(vinylsulfonyl)phenyl)-9H-purin-2-amine], the remaining activity at 1 µM at IRAK1 came out at 37%; at MKK2 it was 84%; at p38δ MAPK, 92%. Also, the remaining activity at 0.5 µM on BTK (setting [1]) worked out at 28%; on BTK (setting [2]), 18%; on CDK2-Cyclin A (setting [1]) it was 9%; at CDK2-Cyclin A (setting [2]), 26%; on TAO1 (setting [1]), 20%; at TAO1 (setting [2]) it was 27%. In addition, at CDK2-Cyclin A (CDK2, 4-hr pre-incubation vs usual format, 0.5 µM), the “additional loss of activity after pre-incubation” value is recorded as more than 50%.
